Source: patent publication US12115149B2, “Formulations, methods, kits, and dosage forms” (MedRegen, LLC, priority 2020, dated 2024)
Read-outs that look alike come from different tables or passages of the source.

How the values were obtained:
[1] = PK/PD study of Formulation A s.c. in mini pigs; details: Formulation A 0.132 ml/kg s.c.
Protocol: (§1) All samples were frozen and stored at −70° C. on receipt. The samples were analyzed by liquid chromatography with tandem mass spectral detection.

[2] = rat, in vivo, sc; for time by which cleared: SD
Protocol: as §1

[3] = Degradation of FK506 in a combination of the two APIs; format: physicochemical; details: combination of the two APIs in solution, earlier attempts; stated as 'may be'
[4] = cited from earlier work
[5] = pig, in vivo, sc
Protocol: as §1

[6] = PK/PD study of Formulation A s.c. in SD rats; details: for absorption lag time after s.c. administration: Formulation A 0.744 ml/kg s.c.
Protocol: as §1

Row | Compound | clearance from blood [1] | time by which cleared [2] [h] | plasma level at 3 hours [2] | FK506 degraded [3] | solubility in water [4] | blood level at 3 hours [5] | absorption lag time after s.c. administration [6] | time of peak plasma concentration ([6]; Formulation A 0.744 ml/kg s.c. (AMD3100 17.856 mg/kg, FK506 0.372 mg/kg), n=12) [h] | blood level at 3 hours [1]
1 | C=CC[C@@H]1/C=C(\C)C[C@H](C)C[C@H](OC)[C@H]2O[C@@](O)(C(=O)C(=O)N3CCCC[C@H]3C(=O)O[C@H](/C(C)=C/[C@@H]3CC[C@@H](O)[C@H](OC)C3)[C@H](C)[C@@H](O)CC1=O)[C@H](C)C[C@@H]2OC [FK506, Tacrolimus] | cleared rapidly after 12 hours | ≤ 12 | remained at high levels | About 50% | poor solubility in water | remained at high levels | no observable lag time | 1 | –
2 | c1cc(CN2CCCNCCNCCCNCC2)ccc1CN1CCCNCCNCCCNCC1 [AMD3100] | cleared rapidly after 12 hours | ≤ 12 | remained at high levels | – | – | – | no observable lag time | – | remained at high levels
3 | AMD3100 octahydrochloride hydrate | – | – | – | – | 22 mg/mL | – | – | – | –
